In US8940310B2, “Methods of treatment using TLR7 and/or TLR9 inhibitors” (Dynavax Technologies Corporation, priority 2010, dated 2015):
[I] = hypoxanthine (inosine); d = 2'-deoxy (DNA); m = 2'-O-methyl

System: human B-cells
Experiment: Human B-cells cultured in the presence of IRPs, IL-6
[1] = Experiment # 5, Max Conc 4.0 uM
[2] = Experiment # 6, Max Conc 4.0 uM
[3] = Experiment # 11, Max Conc 2.0 uM
[4] = Experiment # 4, Max Conc 4.0 uM
[5] = Experiment # 7, Max Conc 4.0 uM
[6] = Experiment # 10, Max Conc 2.0 uM
[7] = Experiment # 8, Max Conc 2.0 uM

“5′-UGCTTGTCCTGGAGGGGTTGT (DNA NNNTTGTCCTGGAGGGGTTGT; listed as DNA, chemistry not fully specified) [SEQ ID NO:87]” was tested, and the “Normalized IL-6 Response (Percentage of Positive Control)” value [1] was 16% and the “Normalized IL-6 Response (Percentage of Positive Control)” value [2] was 12%.
“5′-UGC TGC TCC TTG AGI GGT TGT (DNA UGCTGCTCCTTGAGNGGTTGT; sugars from the 5' end m3 d18, [I] at 15, backbone not given here) [SEQ ID NO:126]” was tested, and the “Normalized IL-6 Response (Percentage of Positive Control)” value [3] was 37%.
For “5′-TGCTGCTCCTTGAGGGGTTGTTTGT-3′ (DNA TGCTGCTCCTTGAGGGGTTGTTTGT; DNA, backbone and methylation of C not given here; further chemistry not fully specified) [SEQ ID NO:58]”, the “Normalized IL-6 Response (Percentage of Positive Control)” value [1] was 33% and the “Normalized IL-6 Response (Percentage of Positive Control)” value [2] was 29%.
With “5′-TGC TGC TCC TGG AGI GGT TGT AAG T-3′ (DNA TGCTGCTCCTGGAGNGGTTGTAAGT; DNA, [I] at 15, backbone and methylation of C not given here) [SEQ ID NO:78]” the “Normalized IL-6 Response (Percentage of Positive Control)” value (Experiment # 1, Max Conc 4.0 uM) was 26% and the “Normalized IL-6 Response (Percentage of Positive Control)” value [3] was 29%.
With “5′-TGCTGCTCCTTGAGGGGTTGT-3′ (DNA TGCTGCTCCTTGAGGGGTTGT; DNA, backbone and methylation of C not given here; further chemistry not fully specified) [SEQ ID NO:59]” the “Normalized IL-6 Response (Percentage of Positive Control)” value [4] was 12% and the “Normalized IL-6 Response (Percentage of Positive Control)” value [5] was 12%.
“5′-UGC TGC TCC TTG AGI GGT GTT GT (DNA UGCTGCTCCTTGAGNGGTGTTGT; sugars from the 5' end m3 d20, [I] at 15, backbone not given here) [SEQ ID NO:180]” was tested, and the “Normalized IL-6 Response (Percentage of Positive Control)” value [6] was 46%.
With “5′-UGC TGC TCC TGG AGI GGT GTT GT (DNA UGCTGCTCCTGGAGNGGTGTTGT; sugars from the 5' end m3 d20, [I] at 15, backbone not given here) [SEQ ID NO:182]” the “Normalized IL-6 Response (Percentage of Positive Control)” value [6] was 53%.
In the case of “5′-UGCTGCTCCTTGAGGGGTTGTTTGT (DNA NNNTGCTCCTTGAGGGGTTGTTTGT; listed as DNA, chemistry not fully specified) [SEQ ID NO:107]”, the “Normalized IL-6 Response (Percentage of Positive Control)” value [4] is reported as 43% and the “Normalized IL-6 Response (Percentage of Positive Control)” value [5] is reported as 43%.
For “5′-UGC TGC TCC TTG AGI GGT TGT (DNA UGCTGCTCCTTGAGNGGTTGT; sugars from the 5' end m3 d18, [I] at 15, backbone not given here) [SEQ ID NO:127]”, the “Normalized IL-6 Response (Percentage of Positive Control)” value [6] was 46%.
For “5′-UGC HEG TCC TGG AGI GGT GTT GT (DNA NNNNTCCTGGAGNGGTGTTGT; HEG spacer, inosine, chemistry not fully specified) [SEQ ID NO:77]”, the “Normalized IL-6 Response (Percentage of Positive Control)” value (Experiment # 3, Max Conc 4.0 uM) was 24%.
With “5′-TGC TGC TCC TTG AGI GGT GTT GT (DNA TGCTGCTCCTTGAGNGGTGTTGT; DNA, [I] at 15, backbone not given here) [SEQ ID NO:179]” the “Normalized IL-6 Response (Percentage of Positive Control)” value [3] was 40%.
With “5′-UGC TTG TCC TGG AGI GGT TG-HEG-T (DNA NNNTTGTCCTGGAGNGGTTGNT; inosine, internal HEG spacer, chemistry not fully specified) [SEQ ID NO:142]” the “Normalized IL-6 Response (Percentage of Positive Control)” value (Experiment # 2, Max Conc 4.0 uM) was 35% and the “Normalized IL-6 Response (Percentage of Positive Control)” value [7] was 22%.
“5′-TGC TCC TTG AGI GGT TGT-3′ (DNA TGCTCCTTGAGNGGTTGT; DNA, [I] at 12, backbone not given here) [SEQ ID NO:71]” was tested, and the “Normalized IL-6 Response (Percentage of Positive Control)” value [4] was 12%, the “Normalized IL-6 Response (Percentage of Positive Control)” value [1] was 15% and the “Normalized IL-6 Response (Percentage of Positive Control)” value [2] was 10%. The “Normalized IL-6 Response (Percentage of Positive Control)” value [5] was 12%, the “Normalized IL-6 Response (Percentage of Positive Control)” value [7] was 4% and the “Normalized IL-6 Response (Percentage of Positive Control)” value (Experiment # 9, Max Conc 2.0 uM) was 14%.
